Measured values taken from article PMC8584173, “The Cytotoxic Effect of Copper (II) Complexes with Halogenated 1,3-Disubstituted Arylthioureas on Cancer and Bacterial Cells” (International Journal of Molecular Sciences, 2021).
Several values for one entry are separate records, joined by “and”; a condition that tells them apart may be missing. Equal values may be shown once.

How the values were obtained:
[1] = system: SW620 cells; test: LDH release assay, SW620; format: cell-based, human; details: 72 h
Method: The presence of lactate dehydrogenase (LDH) in culture medium indicates a disturbance of the integrity of the cellular membrane. The LDH activity was performed after 72 h incubation of cells (1 × 10^4 cells per well) in 96-well plates with selected compounds according to manufacturer’s protocol (Roche Diagnostics, Germany), as was described by Chrzanowska et al.. Compound mediated cytotoxicity was determined using equation: ((A test sample−A low control)/ (A high control−A low control)) × 100% (A-absorbance), where “low control” means cells in medium with 2% FBS without tested compounds, and “high control” means cells incubated in medium with 2% FBS and 1% Triton X-100 (100% LDH release). The cytotoxicity was expressed as percentage of LDH release as compared with the maximum release of LDH from Triton-X-100-treated cells.

[2] = system: Superoxide dismutase [Mn], mitochondrial (SODM_HUMAN); test: LC–MS proteome analysis, SODM; format: cell-based, Homo sapiens; details: IC50 concentration, % of control
Method: (§1) Enzymes involved in oxidoreductive potential were analyzed in the cell lysates obtained after treatment cells with selected conjugates for 24 h. Cells were washed with phosphate-buffered saline (PBS) and harvested, then centrifuged at 1000× g for 10 min. Then, lysis buffer (containing protease inhibitor, 1% RIPA Lysis and Extraction Buffer (ThermoFisher)) and cold PBS were added, and samples were sonicated three times in ice bath. Next, the cell lysates were centrifuged at 14,000× g at 4 °C for 15 min, and then supernatants were stored at […] before use. Protein concentration was measured by the Bradford method.
(§2) Normalized protein concentrations (5 µg) from cell lysate were precipitated by ice cold (–20 °C) acetonitrile (ACN, Merck, in ratio 1:4). Then, samples were centrifuged (–9 °C, 30 min., 18,000× g), the supernatant was discarded and ACN excess was evaporated using a vacuum centrifuge (5 min., room temp.). Protein pellet was dissolved in 40 mM ammonium bicarbonate. An amount of 500 mM dithiothreitol (DTT, with final concentration 20 mM) and 1 M iodoacetamide (IAA, with final concentration 40 mM) were used for reduction and alkylation processes. After 16 h of incubation in 37 °C with Trypsin Gold (Promega), digested protein samples were diluted with 0.1% formic acid (ThermoFisher) and centrifuged (+2 °C, 30 min, 18,000× g).
(§3) LC–MS analysis was carried out with the use of nanoUHPLC (nanoElute, Bruker) coupled by CaptiveSpray (Bruker) to ESI-Q-TOF mass spectrometer (Compact, Bruker). Two-column separation method was used, i.e., pre-column (300 µm × 5 mm, C18 PepMap 100, 5 µm, 100Å, Thermo Scientific) and Aurora separation column with CSI fitting (75 µm × 250 mm, C18 1.6 µm) in gradient 2% B to 35% B in 90 min with the 300 nL/min flow rate. Mobile phases (A) 0.1% formic acid in water and (B) 0.1% formic acid in ACN were used.
(§4) Sample ionizations were performed at a gas flow of 3.0 L/min, temperature of 150 °C and voltage of the capillary at 1600 V. The quadrupole energy was fixed to 5.0 eV and collision chamber energy 7.0 eV, with an ion transfer time of 90 µs. The ions were analyzed in the positive polarity mode in the range 150–2200 m/z, with the acquisition frequency of the 1 Hz spectrum, as well as with the autoMS/MS system.
(§5) The collected spectra were analyzed and calibrated using DataAnalysis software (Bruker) and then identified in ProteinScape (Bruker) by the MASCOT server. Protein identification was conducted using the online SwissProt and NCBIprot databases, and their references and biological significance were identified using Reactome.org, String.org and KEGG.

[3] = system: Peroxiredoxin-6 (PRDX6_HUMAN); test: LC–MS proteome analysis, PRDX6; format: cell-based, Homo sapiens; details: IC50 concentration, % of control
Method: as §1, §2, §3, §4, §5

[4] = system: Glutathione reductase, mitochondrial (GSHR_HUMAN); test: LC–MS proteome analysis, GSHR; format: cell-based, Homo sapiens; details: IC50 concentration, % of control
Method: as §1, §2, §3, §4, §5

[5] = system: Superoxide dismutase [Cu-Zn] (SODC_HUMAN); test: LC–MS proteome analysis, SODC; format: cell-based, Homo sapiens; details: for Protein Intensity, % (SODC): IC50 concentration, % of control
Method: as §1, §2, §3, §4, §5

[6] = system: SW480, SW620, PC3 cancer cells; test: MTT cytotoxicity assay, all cancer cell lines; format: cell-based, human; details: span or bound over SW480, SW620, PC3; 72 h; read-out: IC50 over the tested cancer cell lines
Method: The human primary (SW480), metastatic (SW620) colon cancer, metastatic prostate cancer (PC3) and human immortal keratinocyte (HaCaT) cell lines were purchased from the American Type Culture Collection (ATCC, Rockville, USA). The cells were cultured in medium according to protocols (MEM for SW480 and SW620, RPMI 1640 for PC3 and DMEM for HaCaT cells) supplemented with 10% fetal bovine serum (FBS), penicillin (100 U/mL) and streptomycin (100 μg/mL) and cultured in 37 °C/ 5% CO2 humidified incubator. The cells were cultured until appropriate confluence was achieved (80–90%). Next, they were harvested by treatment with 0.25% trypsin (Gibco Life Technologies, USA) and used for studies.
Cells without studied compounds in medium were used as a control.
The cell viability was assessed by determination of MTT salt (3-(4,5-dimethylthiazol-2-yl)-2,5-diphenyltetrazolium bromide) conversion by mitochondrial dehydrogenase. MTT assay was performed as previously described. Experiments were repeated three times. Cell viability was presented as a percentage of MTT reduction in the treated cells versus the control cells. Number of viable cells cultured without studied compounds was assumed to be 100%. Decreased relative MTT level means decreased cell viability. Thiourea complexes with the highest cytotoxic potential assessed by MTT determination (with the lowest IC50) were chosen for subsequent assessments of cytotoxicity mechanisms.

`O=[N+]([O-])c1cc([N+]2=C(Nc3ccc(I)cc3)[S][Cu-2]23[S]C(Nc2ccc(I)cc2)=[N+]3c2ccc(Cl)c([N+](=O)[O-])c2)ccc1Cl` [Compound 8, Copper (II) complex with 1-(4-iodophenyl)-3-(4-chloro-3-nitrophenyl)thiourea] was tested, and the LDH release ([1]; SW620, 10 μM) was 23%, the LDH release ([1]; SW620, 60 μM) was 42.4% and the “Protein Intensity, % (SODM)” value ([2]; PC3, 24 h) was 29.4%. The “Protein Intensity, % (SODM)” value ([2]; SW480, 24 h) was 94.3%, the “Protein Intensity, % (SODM)” value ([2]; SW620, 24 h) was 92.7% and the “Protein Intensity, % (PRDX6)” value ([3]; PC3, 24 h) was 53.7%. For the same compound, the “Protein Intensity, % (PRDX6)” value ([3]; SW480, 24 h) was 71.1%, the “Protein Intensity, % (PRDX6)” value ([3]; SW620, 24 h) was 77.6% and the “Protein Intensity, % (GSHR)” value ([4]; PC3, 24 h) was 68.5%. For the same compound, the “Protein Intensity, % (GSHR)” value ([4]; SW480, 24 h) was 74.3%, the “Protein Intensity, % (GSHR)” value ([4]; SW620, 24 h) was 79.3% and the “Protein Intensity, % (SODC)” value ([5]; PC3, 24 h) was 33.0%. For the same compound, the “Protein Intensity, % (SODC)” value ([5]; SW480, 24 h) was 88.2% and the “Protein Intensity, % (SODC)” value ([5]; SW620, 24 h) was 64.5%.

In the case of `O=[N+]([O-])c1cc([N+]2=C(Nc3ccccc3F)[S][Cu-2]23[S]C(Nc2ccccc2F)=[N+]3c2ccc(Cl)c([N+](=O)[O-])c2)ccc1Cl` [Compound 7, Copper (II) complex with 1-(2-fluorophenyl)-3-(4-chloro-3-nitrophenyl)thiourea], the LDH release ([1]; SW620, 60 μM) is reported as 30.2%, the “Protein Intensity, % (SODM)” value ([2]; PC3, 24 h) is reported as 25.2% and the “Protein Intensity, % (SODM)” value ([2]; SW480, 24 h) is reported as 65.1%. The “Protein Intensity, % (SODM)” value ([2]; SW620, 24 h) was 45.3%, the “Protein Intensity, % (PRDX6)” value ([3]; PC3, 24 h) was 35.0% and the “Protein Intensity, % (PRDX6)” value ([3]; SW480, 24 h) was 68.3%. For the same compound, the “Protein Intensity, % (PRDX6)” value ([3]; SW620, 24 h) was 67.5%, the “Protein Intensity, % (GSHR)” value ([4]; PC3, 24 h) was 61.2% and the “Protein Intensity, % (GSHR)” value ([4]; SW480, 24 h) was 91.7%. For the same compound, the “Protein Intensity, % (GSHR)” value ([4]; SW620, 24 h) was 67.3%, the IC50 [6] was no more than 10 µM and the “Protein Intensity, % (SODC)” value ([5]; PC3, 24 h) was 15.4%. For the same compound, the “Protein Intensity, % (SODC)” value ([5]; SW480, 24 h) was 40.6%, the “reduction of SODC intensity” value ([5]; SW480, IC50 concentration) was 59.4% and the “Protein Intensity, % (SODC)” value ([5]; SW620, 24 h) was 44.7%.

For `O=[N+]([O-])c1cc([N+]2=C(Nc3ccc(Cl)c(Cl)c3)[S][Cu-2]23[S]C(Nc2ccc(Cl)c(Cl)c2)=[N+]3c2ccc(Cl)c([N+](=O)[O-])c2)ccc1Cl` [Compound 5, Copper (II) complex with 1-(4-chloro-3-nitrophenyl)-3-(3,4-dichlorophenyl)thiourea], the IC50 [6] was no more than 10 µM.

`O=[N+]([O-])c1cc([N+]2=C(Nc3ccc(Br)cc3)[S][Cu-2]23[S]C(Nc2ccc(Br)cc2)=[N+]3c2ccc(Cl)c([N+](=O)[O-])c2)ccc1Cl` [Compound 3, Copper (II) complex with 1-(4-bromophenyl)-3-(4-chloro-3-nitrophenyl)thiourea] was tested, and the “Protein Intensity, % (SODM)” value ([2]; PC3, 24 h) was 31.2%, the “Protein Intensity, % (SODM)” value ([2]; SW480, 24 h) was 77.7% and the “Protein Intensity, % (SODM)” value ([2]; SW620, 24 h) was 77.1%. For the same compound, the “Protein Intensity, % (PRDX6)” value ([3]; PC3, 24 h) was 71.1%, the “Protein Intensity, % (PRDX6)” value ([3]; SW480, 24 h) was 81.3% and the “Protein Intensity, % (PRDX6)” value ([3]; SW620, 24 h) was 66.4%. The “Protein Intensity, % (GSHR)” value ([4]; PC3, 24 h) was 58.9%, the “Protein Intensity, % (GSHR)” value ([4]; SW480, 24 h) was 63.1% and the “Protein Intensity, % (GSHR)” value ([4]; SW620, 24 h) was 79.2%. For the same compound, the IC50 [6] was no more than 10 µM, the “Protein Intensity, % (SODC)” value ([5]; PC3, 24 h) was 30.9% and the “Protein Intensity, % (SODC)” value ([5]; SW480, 24 h) was 75.3%. The “Protein Intensity, % (SODC)” value ([5]; SW620, 24 h) was 78.2%.

For `O=[N+]([O-])c1cc(NC2=[N+](c3ccc(Cl)c([N+](=O)[O-])c3)[Cu-2]3([S]2)[S]C(Nc2ccc(Cl)c([N+](=O)[O-])c2)=[N+]3c2ccc(Cl)c([N+](=O)[O-])c2)ccc1Cl` [Compound 6, Copper (II) complex with 1,3-bis(4-chloro-3-nitrophenyl)thiourea], the IC50 [6] was no less than 20.3 µM.

In the case of `O=[N+]([O-])c1cc([N+]2=C(Nc3ccccc3Br)[S][Cu-2]23[S]C(Nc2ccccc2Br)=[N+]3c2ccc(Cl)c([N+](=O)[O-])c2)ccc1Cl` [Compound 1, Copper (II) complex with 1-(2-bromophenyl)-3-(4-chloro-3-nitrophenyl)thiourea], the LDH release ([1]; SW620, 10 μM) is reported as 22%, the LDH release ([1]; SW620, 60 μM) is reported as 48% and the “Protein Intensity, % (SODM)” value ([2]; PC3, 24 h) is reported as 29% and 29.1%. The “Protein Intensity, % (SODM)” value ([2]; SW480, 24 h) was 67.8%, the “Protein Intensity, % (SODM)” value ([2]; SW620, 24 h) was 88.8% and the “Protein Intensity, % (PRDX6)” value ([3]; PC3, 24 h) was 66.6%. For the same compound, the “Protein Intensity, % (PRDX6)” value ([3]; SW480, 24 h) was 75.1%, the “Protein Intensity, % (PRDX6)” value ([3]; SW620, 24 h) was 83.2% and the “Protein Intensity, % (GSHR)” value ([4]; PC3, 24 h) was 71.1%. The “Protein Intensity, % (GSHR)” value ([4]; SW480, 24 h) was 58.1%, the “Protein Intensity, % (GSHR)” value ([4]; SW620, 24 h) was 69.1% and the “Protein Intensity, % (SODC)” value ([5]; PC3, 24 h) was 58.5%. The “Protein Intensity, % (SODC)” value ([5]; SW480, 24 h) was 68.2% and the “Protein Intensity, % (SODC)” value ([5]; SW620, 24 h) was 72.7%.
